The source of these data is article PMC10787067, “EBF2 Links KMT2D‐Mediated H3K4me1 to Suppress Pancreatic Cancer Progression via Upregulating KLLN” (Advanced Science, 2023).

The Kd is the free concentration of one partner at which half of the binding sites on the other are occupied at equilibrium, for simple one-to-one binding.

The target of one assay is T1, His‐EBF2 (Homo sapiens, UniProt Q9HAK2).
T1 construct: His‐EBF2 plasmid was constructed by inserting the CDS of EBF2 into PET‐28a vector; His; made in house; host or cells: E. coli BL21 (DE3)
T1 sequence (Q9HAK2 1-575): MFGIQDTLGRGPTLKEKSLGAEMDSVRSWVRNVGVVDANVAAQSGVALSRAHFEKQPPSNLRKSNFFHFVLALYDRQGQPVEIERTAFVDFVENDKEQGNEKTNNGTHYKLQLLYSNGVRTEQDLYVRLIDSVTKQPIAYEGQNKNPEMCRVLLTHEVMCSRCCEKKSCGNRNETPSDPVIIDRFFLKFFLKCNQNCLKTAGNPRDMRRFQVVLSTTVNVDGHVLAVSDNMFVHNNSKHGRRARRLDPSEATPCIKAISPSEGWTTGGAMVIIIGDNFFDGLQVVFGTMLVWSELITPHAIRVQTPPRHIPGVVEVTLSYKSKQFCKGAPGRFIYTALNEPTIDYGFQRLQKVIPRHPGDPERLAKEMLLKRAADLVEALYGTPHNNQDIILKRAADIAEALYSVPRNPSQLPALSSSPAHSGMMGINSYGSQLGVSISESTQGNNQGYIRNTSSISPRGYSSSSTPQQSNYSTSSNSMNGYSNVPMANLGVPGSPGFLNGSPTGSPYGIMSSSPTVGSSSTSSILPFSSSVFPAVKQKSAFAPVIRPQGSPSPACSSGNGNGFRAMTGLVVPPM
Put plainly: Peptide pull-down with purified His-EBF2 fusion protein. Format: binding. The conditions noted are these: purified His-EBF2 expressed in E. coli; Figure 1C.

In the next assay the test system is EBF2. Kind of assay: Peptide pull-down with SW1990 and PANC-1 protein extracts. The following applies: biotin-labeled peptides, protein extracts from SW1990 and PANC-1 cells; in vitro; Figure 1B. In kind it is binding, Human. As to the method:
Unmodified histone 3 (H3), H3K4me1 peptides were incubated with nuclear extract of SW1990 cells, separated by SDS‐PAGE gel, and subjected to mass spectrometry. Factors specifically associating with H3K4me1 were screened by peptide pulldown coupled with mass spectrometry analysis. Mass spectrometry‐based proteomic analysis yielded a plethora of putative H3K4me1‐associated proteins, including many known histone or DNA modifiers, readers, and chromatin remodelers (Table S1, Supporting Information). Given that KMT2D executes its antitumor function via catalyzing the formation of H3K4me1 in pancreatic cancer, we explored the genes associated with H3K4me1.
The product was separated by sodium dodecyl sulfate‐polyacrylamide gel electrophoresis (SDS‐PAGE) with silver staining. Protein bands of interest were excised and subjected to electrospray‐ion trap tandem mass spectrometry (LCQ‐Deca, Finnigan).

For another assay, the system named is His‐EBF2 fusion protein. Kind of assay: Isothermal titration calorimetry (ITC). In kind it is binding. The conditions noted are these: Figure 1E. As to the method: His‐EBF2 plasmid was constructed by inserting the CDS of EBF2 into PET‐28a vector, transformed into E. coli BL21 (DE3), and cultured with isopropyl‐β‐D‐thiogalactoside (IPTG; Beyotime) at 16 °C for 12 h, […]. BL21 cells were collected and sonicated in cold PBS buffer, and His‐fusion proteins were purified with High Affinity Nickel beads (Genscript, Nanjing, China). The purity of His‐fusion proteins was evaluated by SDS‐PAGE.
A MicroCal ITC‐200 system (Malvern Instruments Ltd., UK) was used for ITC assay. Briefly, the synthesized peptides (Genscript) and proteins were all subjected to extensive dialysis against PBS. Peptides at a concentration of 1 mM were loaded into the ITC syringe, and proteins at a concentration of 100 µM into the ITC cell. Then, every 2 µL of peptide was automatically injected into the cell at 25 °C. The results of binding isotherms were analyzed using the Origin 7.0 software package (Origin Lab).
Background: ITC needs no label: the signal is the heat of the interaction.

Assay [1] concerns the target recombinant His-tagged EBF2 fusion protein (human) (UniProt Q9HAK2). Kind of assay: MST; NT-647-NHS-labelled EBF2 at 100 nM in PBS with 0.05% Tween-20, pH 7.4; peptides 10 nM to 500 uM; Monolith NT.115.
A further assay has as its system H3K4me1. Kind of assay: Co-IP of Flag-tagged EBF2-WT or EBF2-H239A with H3K4me1 in SW1990 cells. The conditions noted are these: Co-IP on SW1990 cells; Figure S1B. In kind it is binding, Human. As to the method: Co‐immunoprecipitation assay was performed as described previously.^[ [61] ^] Briefly, SW1990 cells were transfected with indicated constructs or treated with GSK‐LSD1, washed with cold phosphate buffered saline (PBS), and lysed with cold cell lysis buffer. Then, the lysates were incubated with appropriate specific antibodies or normal rabbit IgG at 4 °C overnight in constant rotation, followed by the addition of protein A/G Sepharose beads and incubation for 2 h at 4 °C. The beads were then washed five times by the lysis buffer. Bead‐bound proteins were resolved by SDS‐PAGE and detected by immunoblotting using indicated antibodies.

Take `CNCCCC[C@H](NC(=O)[C@@H](NC(=O)[C@H](CCCNC(=N)N)NC(=O)[C@H](C)N)[C@@H](C)O)C(=O)N[C@@H](CCC(N)=O)C(=O)N[C@H](C(=O)N[C@@H](C)C(=O)N[C@@H](CCCNC(=N)N)C(=O)N[C@@H](CCCCN)C(=O)N[C@@H](CO)C(=O)N[C@H](C(=O)NCC(=O)NCC(=O)N[C@@H](CCCCN)C(=O)N[C@@H](C)C(=O)N1CCC[C@H]1C(=O)N[C@@H](CCCNC(=N)N)C(=O)N[C@@H](CCCCN)C(=O)N[C@@H](CCC(N)=O)C(=O)O)[C@@H](C)O)[C@@H](C)O` [H3K4me1]: the “pull-down of purified His-EBF2 by peptide” value at His‐EBF2 is listed as “pulled down by H3K4me1 peptide”. For the same molecule, the “preferential binding of EBF2 to peptide” value in the assay on EBF2 is “preferential binding of EBF2 to H3K4me1 over H3K4me3”. Moreover, the “affinity of His-EBF2 to peptide, in words” value in the assay on His‐EBF2 fusion protein was “strong affinity”.

With “H3K4me1 peptide (C-terminal biotin-tagged 19 amino acid N-terminal peptide of histone H3, mono-methylated on Lys 4) (from UniProt P68431 2-20)”, in assay [1], the Kd is 7.37 µM.

B1: EBF2‐H239A: Flag-tagged EBF2-H239A; H239 is the site for H3K4me1 binding to EBF2 protein (protein)
chain: MFGIQDTLGRGPTLKEKSLGAEMDSVRSWVRNVGVVDANVAAQSGVALSRAHFEKQPPSNLRKSNFFHFVLALYDRQGQPVEIERTAFVDFVENDKEQGNEKTNNGTHYKLQLLYSNGVRTEQDLYVRLIDSVTKQPIAYEGQNKNPEMCRVLLTHEVMCSRCCEKKSCGNRNETPSDPVIIDRFFLKFFLKCNQNCLKTAGNPRDMRRFQVVLSTTVNVDGHVLAVSDNMFVHNNSKAGRRARRLDPSEATPCIKAISPSEGWTTGGAMVIIIGDNFFDGLQVVFGTMLVWSELITPHAIRVQTPPRHIPGVVEVTLSYKSKQFCKGAPGRFIYTALNEPTIDYGFQRLQKVIPRHPGDPERLAKEMLLKRAADLVEALYGTPHNNQDIILKRAADIAEALYSVPRNPSQLPALSSSPAHSGMMGINSYGSQLGVSISESTQGNNQGYIRNTSSISPRGYSSSSTPQQSNYSTSSNSMNGYSNVPMANLGVPGSPGFLNGSPTGSPYGIMSSSPTVGSSSTSSILPFSSSVFPAVKQKSAFAPVIRPQGSPSPACSSGNGNGFRAMTGLVVPPM
As for B1, the “ability to bind H3K4me1 compared with EBF2-WT” value in the assay with H3K4me1 is on record as “significantly weaker than that of EBF2‐WT”.
